Values joined by “and” are separate entries in the source; they are usually repeats but may differ in a detail not shown here. Equal entries are not always repeated. “Also recorded” adds a separate entry of the source. Where two headings read alike, the source gives them in different places.
What was measured:
Notch signalling = experiment: Notch reporter assay (12xCSL firefly luciferase / renilla luciferase, HEK293T Notch1ΔE reporter cell line clone #A1-11); type: cell-based; design: AUC Notch: scale not given here; conditions: for Bottom (Emax): Emax indicated independent from assay constraints, in % (unit assumed); for activity: 1,25µM; for AUC Notch: area under the 14-point dose-response curve; for concentrations associated with cytotoxicity (high dose-points removed): extended dose range, Supplemental Fig. 7B; for Notch assay: overview in comparison to compound C, Supplemental Fig. 9; for AUC 9p Notch reporter assay / AUC 14p Notch reporter assay: AUCs averaged when replicates available
Summary of the method: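 Compounds at two-fold concentration in 10 µl medium were brought to one-fold by adding 10 µl holding 4000 Notch reporter cells (clone #A1-11) per well of a 384-well plate. After 24 h, Promega dual-GLO firefly and renilla luciferase were read on a SpectraMaxi3. Dose-response curves were fitted with a log(inhibitor) vs. response variable-slope model.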

[1] = tested on: Notch downstream genes in tumour cell lines; experiment: Three dose response gene expression analysis (qRT-PCR), panel of cell lines; type: cell-based; design: key to gene expression: + indicates that the compound had an effect; -: − indicates that there was no significant effect in the respective assay; conditions: for Notch targets: overview in comparison to compound C, Supplemental Fig. 9; for gene expression: summary Fig. 8E
Protocol: Total RNA from cell lines was isolated using the RNeasy Mini kit (cat #74104, Qiagen), according to the manufacturer’s instructions. qRT-PCR was performed as described elsewhere[51] with some minor modifications: RNA was reverse transcribed to cDNA using iScript Reverse Transcription Supermix (cat # 1708841, Bio-rad). cDNA was then diluted 1:5 in nuclease free H20. qRT-PCR was performed on a C1000 Touch thermal cycler (Bio-rad) and gene expression was detected with SsoAdvanced Universal SYBR Green Supermix (cat # 1725274, Bio-rad). Gene expression was determined by normalizing to GAPDH mRNA expression levels and fold expression change was calculated using the ΔΔCT method (ΔΔCT = ΔCt sample − Δct control). Primers used in qPCR are shown in Supplemental Table 9.
Adherent breast cancer cells were seeded in 24-well cell culture plates (ThermoFisher, Nunc, Delta surface, cat #144530) and T-ALL cells growing in suspension (Jurkat, RPMI-8402) were seeded in non-adherent 24-well plates (ThermoFisher, Nunc, cat […]). 60.000 cells were seeded and treated with 0.1, 1 and 10 µM of each compound. […] Cells were harvested 24 h post treatment and RNA isolation and gene expression analysis (qRT-PCR) was performed as described above.

[2] = Homo sapiens, HEK-293T, 14-point, unit inferred, replicates averaged, read-out: approxiated IC50s 14p Notch reporter assay
[3] = Homo sapiens, HEK-293T, 14p Notch assay DR, log10 value, bottom constrained to Emax of positive control DAPT, read-out: approximated LogIC50 (converted)
[4] = Homo sapiens, HEK-293T, 10 µM, primary screen, 24 h, unit from Fig. 2 legend, read-out: Primary screen at 10 µM (Notch reporter signal)
[5] = Homo sapiens, HEK-293T, 10 µM, three-dose confirmation screen, unit from Fig. 2 legend, read-out: Hit confirmation at 10 µM (Notch reporter signal)
[6] = Homo sapiens, HEK-293T, 10µM, 3-point DR confirmation screen, Notch reporter assay, read-out: inhibitor ratio in % of DMSO in 3 point DR
[7] = Homo sapiens, HEK-293T, 10 µM, sheet conf vs counter 10 µM, same values as 3-point DR confirmation screen, read-out: Confirmation screen
[8] = Homo sapiens, HEK-293T, 25µM, 3-point DR confirmation screen, Notch reporter assay, read-out: inhibitor ratio in % of DMSO in 3 point DR
[9] = Homo sapiens, HEK-293T, 25 µM, Notch reporter 3-point dose-confirmation assay, sheet "conf vs counter 25 µM", read-out: Confirmation screen
[10] = Homo sapiens, HEK-293T, 3-point DR confirmation screen, Notch reporter assay, read-out: inhibitor ratio in % of DMSO in 3 point DR
[11] = 9p dose response, single replicates, read-out: approximated IC50s 9p Notch reporter assay
[12] = 14p dose response, single replicates, read-out: approximated IC50s 14p Notch reporter assay
[13] = Homo sapiens, HEK-293T, 9p dose response, averaged over replicates, read-out: 9p Notch reporter assay averaged IC50s
[14] = Homo sapiens, HEK-293T, 9p dose response, log10 of averaged IC50, read-out: 9p Notch reporter assay averaged IC50s (log) (converted)
[15] = Homo sapiens, HEK-293T, 14p Notch assay DR, log10 value, Notch inhibitor controls, no bottom constraint named, read-out: approximated LogIC50 (converted)
[16] = Homo sapiens, HEK-293T, 14p dose response, single replicates, read-out: approximated IC50s 14p Notch reporter assay
[17] = Homo sapiens, HEK-293T, 14p dose response, log10 of averaged IC50, read-out: 14p Notch reporter assay averaged IC50s (log) (converted)
[18] = Homo sapiens, HEK-293T, 14-point dose-response, Fig. 4, read-out: approximated IC50, Notch reporter assay
[19] = Homo sapiens, HEK-293T, 14p Notch assay DR, bottom constrained to Emax of positive control DAPT, read-out: approximated IC50
[20] = Homo sapiens, HEK-293T, 14p Notch assay DR, bottom constrained to Emax of positive control RO4929097, read-out: approximated IC50
[21] = Homo sapiens, HEK-293T, 14p Notch assay DR, log10 value, bottom constrained to Emax of positive control RO4929097, read-out: approximated LogIC50 (converted)

## COc1cccc(CNc2ccc(N3CCCCC3)cc2)c1OCc1cccs1 [compound C]
Notch signalling; 14-point dose-response
  Hill slope, Notch reporter assay: -16.2
Notch signalling; 14p Notch assay DR
  Bottom (Emax): 45.4
Notch signalling; [2]
  IC50: 1200 nM
Notch signalling; [3]
  IC50: 1260 nM
Notch signalling; Homo sapiens, HEK-293T, dose range 50 µM-2.5 nM, Fig. 7E, read-out: IC50, Notch reporter activity
  IC50: 150 nM
Notch signalling; [4]
  activity at 10 µM: 50.1%
Notch signalling; [5]
  activity at 10 µM: 66.2%
Notch signalling; [6]
  activity at 10 µM: 66.2%
Notch signalling; [7]
  activity at 10 µM: 66.2%
Notch signalling; [8]
  activity at 25 µM: 65.1%
Notch signalling; [9]
  activity at 25 µM: 65.1%
Notch signalling; [10]
  activity: 61.8%
Notch signalling; replicates averaged
  AUC Notch: 584.0
Notch signalling
  concentrations associated with cytotoxicity (high dose-points removed): higher than 12.5 µM
  Notch assay: nanomolar potency
[1]
  Notch targets: condition dependent
  gene expression: +

## CC(C)(C(=O)NCC(F)(F)C(F)(F)F)C(=O)N[C@@H]1C(=O)Nc2ccccc2-c2ccccc21 [RO4929097, reference compound]
Notch signalling; [11]
  IC50: 31 nM and 13 nM
Notch signalling; 9p dose response
  AUC 9p Notch reporter assay: 2.36E+02
Notch signalling; [12]
  IC50: 45 nM
Notch signalling; 14p dose response
  AUC 14p Notch reporter assay: 4.30E+02
Notch signalling; [13]
  IC50: 22 nM
Notch signalling; [14]
  IC50: 20 nM
Notch signalling; [2]
  IC50: 53 nM
Notch signalling; Homo sapiens, HEK-293T, 14p Notch assay DR, Notch inhibitor controls, no bottom constraint named, read-out: approximated IC50
  IC50: 21.7 nM
Notch signalling; Homo sapiens, HEK-293T, 14p Notch assay DR, averaged when replicate measurements were available, read-out: averaged IC50s
  IC50: 42 nM
Notch signalling; [15]
  IC50: 63.1 nM
Notch signalling; [16]
  IC50: 60 nM
Notch signalling; [17]
  IC50: 50.1 nM
Notch signalling; replicates averaged
  AUC Notch: 430.0
Notch signalling
  Notch assay: higher potency
[1]; across the panel of cell lines
  HES1 and HES4 target gene expression: consistently reduced
[1]
  Notch targets: condition dependent

## C[C@H](NC(=O)Cc1cc(F)cc(F)c1)C(=O)N[C@H](C(=O)OC(C)(C)C)c1ccccc1 [DAPT, reference compound]
Notch signalling; 10 µM, inhibitor controls, Supplemental Fig. 2A
  reporter signal in % of DMSO: 49%
Notch signalling; [11]
  IC50: 290 nM and 260 nM
Notch signalling; 9p dose response
  AUC 9p Notch reporter assay: 3.01E+02
Notch signalling; 9p dose response, averaged over replicates, read-out: 9p Notch reporter assay averaged IC50s
  IC50: 280 nM
Notch signalling; 9p dose response, log10 of averaged IC50
  9p Notch reporter assay averaged IC50s (log): -6.6
Notch signalling; 14-point, unit inferred, replicates averaged, read-out: approxiated IC50s 14p Notch reporter assay
  IC50: 440 nM
Notch signalling; 14p Notch assay DR
  Bottom (Emax): 42.8 and 41.0
Notch signalling; 14p Notch assay DR, log10 value, Notch inhibitor controls, no bottom constraint named
  approximated LogIC50 [M]: -6.3 M
Notch signalling; [12]
  IC50: 510 nM and 370 nM
Notch signalling; 14p dose response
  AUC 14p Notch reporter assay: 4.95E+02
Notch signalling; 14p dose response, log10 of averaged IC50
  14p Notch reporter assay averaged IC50s (log): -6.4
Notch signalling; 384-well format
  renilla signal: not affected
Notch signalling; replicates averaged
  AUC Notch: 495.0
Notch signalling
  Notch assay: comparable

## NC(=O)c1c(NC(=O)NCc2cccnc2)sc2c1CCC2 [compound D]
Notch signalling; 14-point dose-response
  Hill slope, Notch reporter assay: -1.7
Notch signalling; [18]
  IC50: 1000 nM
Notch signalling; [2]
  IC50: 780 nM
Notch signalling; [19]
  IC50: 1300 nM
Notch signalling; [20]
  IC50: 230 nM
Notch signalling; [3]
  IC50: 1580 nM
Notch signalling; [21]
  IC50: 251 nM
Notch signalling; [4]
  activity at 10 µM: 44.7%
Notch signalling; [5]
  activity at 10 µM: 47%
Notch signalling; [6]
  activity at 10 µM: 47%
Notch signalling; [7]
  activity at 10 µM: 47%
Notch signalling; [8]
  activity at 25 µM: 55.6%
Notch signalling; [9]
  activity at 25 µM: 55.6%
Notch signalling; [10]
  activity: 91%
Notch signalling; replicates averaged
  AUC Notch: 273.0
Notch signalling
  concentrations associated with cytotoxicity (high dose-points removed): higher than 12.5 µM
[1]
  gene expression: +

## CC(C)(C)c1ccc(Oc2ccc(N)cn2)cc1 [CB-103, reference compound]
Notch signalling; 9p dose response
  AUC 9p Notch reporter assay: 3.40E+02
Notch signalling; [12]
  IC50: 5800 nM
Notch signalling; 14p dose response
  AUC 14p Notch reporter assay: 5.46E+02
Notch signalling; [13]
  IC50: 15000 nM
Notch signalling; [14]
  IC50: 15800 nM
Notch signalling; [2]
  IC50: 5500 nM
Notch signalling; [15]
  IC50: 6310 nM
Notch signalling; [16]
  IC50: 5100 nM
Notch signalling; [17]
  IC50: 5010 nM
Notch signalling; replicates averaged
  AUC Notch: 546.0
Notch signalling
  Notch assay: lower potency; also recorded: lower activity than compound C
[1]
  Notch targets: condition dependent

## Cc1nn(-c2nc3ccccc3s2)c(O)c1C1OC(=O)c2ccccc21 (centres unmarked) [compound E]
Notch signalling; 14-point dose-response, Fig. 4, read-out: approximated IC50, Notch reporter assay
  IC50: 700 nM
Notch signalling; 14p Notch assay DR
  Bottom (Emax): 54.2
Notch signalling; [18]
  IC50: 730 nM
Notch signalling; [3]
  IC50: 794 nM
Notch signalling; [4]
  activity at 10 µM: 45%
Notch signalling; [5]
  activity at 10 µM: 38%
Notch signalling; [6]
  activity at 10 µM: 38%
Notch signalling; [7]
  activity at 10 µM: 38%
Notch signalling; [8]
  activity at 25 µM: 35.2%
Notch signalling; [9]
  activity at 25 µM: 35.2%
Notch signalling; [10]
  activity: 37.1%
Notch signalling; replicates averaged
  AUC Notch: 577.0
[1]
  gene expression: +

## CCc1c(C(=O)N(C)Cc2cnn(C(C)C)c2)[nH]c2ccccc12 [compound A]
Notch signalling; [18]
  IC50: 3300 nM
Notch signalling; Homo sapiens, HEK-293T, 14-point dose-response, read-out: approximated IC50, Notch reporter assay
  IC50: 4000 nM
Notch signalling; [2]
  IC50: 3400 nM
Notch signalling; [19]
  IC50: 4200 nM
Notch signalling; [20]
  IC50: 2500 nM
Notch signalling; [3]
  IC50: 3980 nM
Notch signalling; [21]
  IC50: 2510 nM
Notch signalling; [4]
  activity at 10 µM: 25.3%
Notch signalling; [5]
  activity at 10 µM: 27.7%
Notch signalling; [6]
  activity at 10 µM: 27.7%
Notch signalling; [7]
  activity at 10 µM: 27.7%
Notch signalling; [8]
  activity at 25 µM: 19%
Notch signalling; [9]
  activity at 25 µM: 19%
Notch signalling; [10]
  activity: 65.8%
Notch signalling; replicates averaged
  AUC Notch: 535.0
[1]
  gene expression: -

## Cc1ccc2[nH]c3c(c2c1)CCOC31CCN(Cc2ccccc2-c2ccccc2)CC1 [compound B]
Notch signalling; [18]
  IC50: 900 nM
Notch signalling; [2]
  IC50: 910 nM
Notch signalling; [19]
  IC50: 1200 nM
Notch signalling; [20]
  IC50: 590 nM
Notch signalling; [3]
  IC50: 1260 nM
Notch signalling; [21]
  IC50: 631 nM
Notch signalling; [4]
  activity at 10 µM: 60.8%
Notch signalling; [5]
  activity at 10 µM: 65%
Notch signalling; [7]
  activity at 10 µM: 65%
Notch signalling; [9]
  activity at 25 µM: 69.3%
Notch signalling; [10]
  activity: 79.7%
Notch signalling; replicates averaged
  AUC Notch: 573.0
Notch signalling
  concentrations associated with cytotoxicity (high dose-points removed): higher than 5 µM
[1]
  gene expression: +
